Laboratory results from article PMC9005681, “Use of AD Informer Set compounds to explore validity of novel targets in Alzheimer's disease pathology” (Alzheimer's & Dementia : Translational Research & Clinical …, 2022).
Where “and” joins values, the source holds several entries; their conditions need not be identical. Equal values may be shown once.

What was measured:
Test in all cases: PDSP GPCR panel primary binding assays at 10 μM
[1] = target: T1, cloned human or rodent CNS receptors, channels, and transporters (PDSP panel) (Homo sapiens, UniProt P35367); conditions: primary assay
T1 construct: expressed in transfected cells
How it was run: (§1)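 Each compound is first screened once at 10 μM, in quadruplicate, for radioligand displacement. Where mean displacement passes 50%, an 11-point dose-response in triplicate follows at that target, except at H3, PBR and GABAA.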

[2] = target: T2, cloned human or rodent CNS receptors, channels, and transporters (PDSP panel) (Homo sapiens, UniProt P23975); conditions: primary assay
T2 construct: expressed in transfected cells
How it was run: as §1

[3] = target: T3, cloned human or rodent CNS receptors, channels, and transporters (PDSP panel) (Homo sapiens, UniProt P41595); conditions: primary assay
T3 construct: expressed in transfected cells
How it was run: as §1

[4] = test system: cloned human or rodent CNS receptors, channels, and transporters (PDSP panel); conditions: for Inhibition 1 / Inhibition 2 / Inhibition 3 / Inhibition 4 / Mean %: primary assay
How it was run: as §1

[5] = target: T4, cloned human or rodent CNS receptors, channels, and transporters (PDSP panel) (Homo sapiens, UniProt P28221); conditions: primary assay
T4 construct: expressed in transfected cells
How it was run: as §1

[6] = target: T5, cloned human or rodent CNS receptors, channels, and transporters (PDSP panel) (Homo sapiens, UniProt P25100); conditions: primary assay
T5 construct: expressed in transfected cells
T5 sequence (P25100 1-572): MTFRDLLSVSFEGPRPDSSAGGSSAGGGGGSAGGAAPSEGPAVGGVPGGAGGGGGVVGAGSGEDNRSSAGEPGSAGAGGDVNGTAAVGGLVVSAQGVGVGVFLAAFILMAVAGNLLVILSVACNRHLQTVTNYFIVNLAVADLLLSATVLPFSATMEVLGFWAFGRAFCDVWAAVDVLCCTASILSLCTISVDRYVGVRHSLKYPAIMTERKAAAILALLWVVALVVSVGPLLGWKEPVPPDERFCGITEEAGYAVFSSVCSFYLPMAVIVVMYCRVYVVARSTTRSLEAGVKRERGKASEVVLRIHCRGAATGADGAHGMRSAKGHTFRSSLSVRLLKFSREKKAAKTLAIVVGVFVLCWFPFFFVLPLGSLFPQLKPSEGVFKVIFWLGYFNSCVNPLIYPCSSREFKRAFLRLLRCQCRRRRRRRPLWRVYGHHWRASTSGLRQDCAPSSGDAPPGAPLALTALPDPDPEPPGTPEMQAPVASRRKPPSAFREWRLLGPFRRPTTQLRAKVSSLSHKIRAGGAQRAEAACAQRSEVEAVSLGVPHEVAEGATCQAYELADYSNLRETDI
How it was run: as §1

[7] = target: T6, cloned human or rodent CNS receptors, channels, and transporters (PDSP panel) (Homo sapiens, UniProt P31645); conditions: primary assay
T6 construct: expressed in transfected cells
How it was run: as §1

[8] = target: T7, cloned human or rodent CNS receptors, channels, and transporters (PDSP panel) (Homo sapiens, UniProt P14416); conditions: primary assay
T7 construct: expressed in transfected cells
How it was run: as §1

[9] = Receptor BZP Rat Brain Site, 10 μM

T4 sequence (P28221 whole entry): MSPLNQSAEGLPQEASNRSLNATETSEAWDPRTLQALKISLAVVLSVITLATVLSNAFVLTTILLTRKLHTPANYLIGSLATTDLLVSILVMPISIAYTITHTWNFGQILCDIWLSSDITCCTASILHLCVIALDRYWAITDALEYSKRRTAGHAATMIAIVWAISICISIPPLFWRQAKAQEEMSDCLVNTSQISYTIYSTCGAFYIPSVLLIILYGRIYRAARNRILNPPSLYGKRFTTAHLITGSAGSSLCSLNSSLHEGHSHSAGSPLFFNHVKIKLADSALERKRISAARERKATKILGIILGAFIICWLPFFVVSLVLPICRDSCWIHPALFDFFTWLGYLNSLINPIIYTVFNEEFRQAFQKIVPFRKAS
T2 sequence (P23975 whole entry): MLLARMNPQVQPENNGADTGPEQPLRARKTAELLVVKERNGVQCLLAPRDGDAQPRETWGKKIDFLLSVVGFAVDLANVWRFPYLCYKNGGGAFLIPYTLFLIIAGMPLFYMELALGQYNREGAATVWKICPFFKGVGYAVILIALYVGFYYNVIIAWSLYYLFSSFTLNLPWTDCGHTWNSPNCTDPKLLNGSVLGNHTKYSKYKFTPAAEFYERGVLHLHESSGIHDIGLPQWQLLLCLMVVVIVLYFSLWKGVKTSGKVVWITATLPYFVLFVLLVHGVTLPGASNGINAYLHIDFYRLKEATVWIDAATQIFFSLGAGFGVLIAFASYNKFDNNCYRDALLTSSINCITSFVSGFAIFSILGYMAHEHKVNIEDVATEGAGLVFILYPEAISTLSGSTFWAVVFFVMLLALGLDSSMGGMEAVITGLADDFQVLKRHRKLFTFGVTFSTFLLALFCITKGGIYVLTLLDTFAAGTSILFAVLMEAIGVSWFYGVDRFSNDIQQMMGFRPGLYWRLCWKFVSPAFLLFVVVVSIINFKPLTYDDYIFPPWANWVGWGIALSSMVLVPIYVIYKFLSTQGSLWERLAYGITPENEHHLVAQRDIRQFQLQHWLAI
T6 sequence (P31645 whole entry): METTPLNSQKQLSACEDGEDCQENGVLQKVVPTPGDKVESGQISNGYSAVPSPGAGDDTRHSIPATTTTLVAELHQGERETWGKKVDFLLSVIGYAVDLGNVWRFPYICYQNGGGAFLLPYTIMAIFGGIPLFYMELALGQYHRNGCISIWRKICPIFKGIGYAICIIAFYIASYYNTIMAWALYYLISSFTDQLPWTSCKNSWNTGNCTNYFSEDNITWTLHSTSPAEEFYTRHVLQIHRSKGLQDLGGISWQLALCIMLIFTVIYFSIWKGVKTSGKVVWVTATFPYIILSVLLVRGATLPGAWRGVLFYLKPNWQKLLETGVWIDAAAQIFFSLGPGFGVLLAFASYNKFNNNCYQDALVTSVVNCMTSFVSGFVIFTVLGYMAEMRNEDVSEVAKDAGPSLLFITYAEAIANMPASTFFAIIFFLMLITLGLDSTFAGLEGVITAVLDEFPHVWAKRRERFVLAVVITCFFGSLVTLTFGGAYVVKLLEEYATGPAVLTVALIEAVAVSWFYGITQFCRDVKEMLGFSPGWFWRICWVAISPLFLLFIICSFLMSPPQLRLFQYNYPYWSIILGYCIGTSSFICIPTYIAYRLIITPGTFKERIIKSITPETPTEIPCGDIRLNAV
T1 sequence (P35367 whole entry): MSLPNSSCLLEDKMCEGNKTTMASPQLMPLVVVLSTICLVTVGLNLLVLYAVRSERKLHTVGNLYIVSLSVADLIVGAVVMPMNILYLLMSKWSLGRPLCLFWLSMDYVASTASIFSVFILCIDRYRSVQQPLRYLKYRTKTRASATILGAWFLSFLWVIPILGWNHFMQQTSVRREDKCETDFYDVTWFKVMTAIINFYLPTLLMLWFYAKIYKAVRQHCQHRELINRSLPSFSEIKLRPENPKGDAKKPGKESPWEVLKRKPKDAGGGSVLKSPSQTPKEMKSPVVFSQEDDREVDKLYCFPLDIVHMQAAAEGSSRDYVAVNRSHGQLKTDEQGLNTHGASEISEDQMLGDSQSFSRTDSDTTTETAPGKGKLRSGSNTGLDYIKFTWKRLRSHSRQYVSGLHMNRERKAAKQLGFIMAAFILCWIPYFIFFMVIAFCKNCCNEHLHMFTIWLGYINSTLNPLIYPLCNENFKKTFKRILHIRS
T7 sequence (P14416 whole entry): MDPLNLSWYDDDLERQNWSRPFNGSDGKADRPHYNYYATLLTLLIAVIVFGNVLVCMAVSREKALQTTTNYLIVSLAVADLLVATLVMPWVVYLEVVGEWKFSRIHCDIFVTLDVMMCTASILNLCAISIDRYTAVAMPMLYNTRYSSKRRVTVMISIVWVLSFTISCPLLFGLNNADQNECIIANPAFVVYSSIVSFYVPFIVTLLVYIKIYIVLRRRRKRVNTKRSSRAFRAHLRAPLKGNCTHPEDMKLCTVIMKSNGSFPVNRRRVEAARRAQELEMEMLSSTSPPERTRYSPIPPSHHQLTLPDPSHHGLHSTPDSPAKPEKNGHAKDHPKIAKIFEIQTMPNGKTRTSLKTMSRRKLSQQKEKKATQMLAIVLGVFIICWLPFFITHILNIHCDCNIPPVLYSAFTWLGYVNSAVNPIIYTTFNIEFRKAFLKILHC
T3 sequence (P41595 whole entry): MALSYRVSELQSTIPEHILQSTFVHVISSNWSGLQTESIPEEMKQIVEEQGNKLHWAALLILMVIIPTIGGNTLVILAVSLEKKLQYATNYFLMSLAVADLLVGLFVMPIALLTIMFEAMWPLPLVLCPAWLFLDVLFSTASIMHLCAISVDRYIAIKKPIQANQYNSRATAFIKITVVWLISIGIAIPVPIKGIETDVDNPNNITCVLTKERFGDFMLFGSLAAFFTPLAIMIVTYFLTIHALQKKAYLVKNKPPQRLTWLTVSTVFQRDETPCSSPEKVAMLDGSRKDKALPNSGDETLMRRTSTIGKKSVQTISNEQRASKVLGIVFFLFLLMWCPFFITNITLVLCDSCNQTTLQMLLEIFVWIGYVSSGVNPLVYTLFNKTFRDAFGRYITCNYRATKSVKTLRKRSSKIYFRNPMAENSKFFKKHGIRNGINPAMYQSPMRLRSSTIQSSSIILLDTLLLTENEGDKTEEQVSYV

Cl.NC(=O)c1cnc(N[C@@H]2CCCC[C@@H]2N)nc1Nc1cccc(-n2nccn2)c1 [UNC10302682A, P505-15 (PRT06207 HCl)]
Inhibition 1 ([1]; Receptor H1, 10 μM): 100.99%
Inhibition 2 ([1]; Receptor H1, 10 μM): 95.9%
Inhibition 3 ([1]; Receptor H1, 10 μM): 86.08%
Inhibition 4 ([1]; Receptor H1, 10 μM): 60.28%
Mean % ([1]; Receptor H1, 10 μM, mean of Inhibition 1-4): 85.81%
Inhibition 1 ([2]; Receptor NET, 10 μM): 84.07% and 84.11%
Inhibition 2 ([2]; Receptor NET, 10 μM): 85.74% and 79.57%
Inhibition 3 ([2]; Receptor NET, 10 μM): 83.91% and 77.54%
Inhibition 4 ([2]; Receptor NET, 10 μM): 89.74%
Mean % ([2]; Receptor NET, 10 μM, mean of Inhibition 1-4): 85.87% and 80.58%
Inhibition 1 ([3]; Receptor 5-HT2B, 10 μM): 19.24%
Inhibition 2 ([3]; Receptor 5-HT2B, 10 μM): 3.3%
Inhibition 3 ([3]; Receptor 5-HT2B, 10 μM): -9.28%
Inhibition 4 ([3]; Receptor 5-HT2B, 10 μM): -13.48%
Mean % ([3]; Receptor 5-HT2B, 10 μM, mean of Inhibition 1-4): -0.06%
Affinity for receptors in primary assays ([4]; 10 μM, 46-47 primary binding assays): possessed affinity for the most receptors in primary assays
Inhibition 1 ([4]; Receptor Alpha1A, 10 μM): 22.91%
Inhibition 2 ([4]; Receptor Alpha1A, 10 μM): 19.17%
Inhibition 3 ([4]; Receptor Alpha1A, 10 μM): 28.52%
Inhibition 4 ([4]; Receptor Alpha1A, 10 μM): 1.22%
Mean % ([4]; Receptor Alpha1A, 10 μM, mean of Inhibition 1-4): 17.96%
Inhibition 1 ([4]; Receptor Alpha2A, 10 μM): 21.38%
Inhibition 2 ([4]; Receptor Alpha2A, 10 μM): 23.31%
Inhibition 3 ([4]; Receptor Alpha2A, 10 μM): 19.6%
Inhibition 4 ([4]; Receptor Alpha2A, 10 μM): 16.75%
Mean % ([4]; Receptor Alpha2A, 10 μM, mean of Inhibition 1-4): 20.26%
Inhibition 1 ([4]; Receptor Alpha2C, 10 μM): 22.11%
Inhibition 2 ([4]; Receptor Alpha2C, 10 μM): 17.82%
Inhibition 3 ([4]; Receptor Alpha2C, 10 μM): 14.79%
Inhibition 4 ([4]; Receptor Alpha2C, 10 μM): 26.53%
Mean % ([4]; Receptor Alpha2C, 10 μM, mean of Inhibition 1-4): 20.31%
Inhibition 1 [4, 9]: 6.42%
Inhibition 2 [4, 9]: 10.02%
Inhibition 3 [4, 9]: 1.11%
Inhibition 4 [4, 9]: 13.06%
Mean % ([4]; Receptor BZP Rat Brain Site, 10 μM, mean of Inhibition 1-4): 7.65%
Inhibition 1 ([4]; Receptor DOR, 10 μM): -18.41%
Inhibition 2 ([4]; Receptor DOR, 10 μM): -4.86%
Inhibition 3 ([4]; Receptor DOR, 10 μM): 0.02%
Inhibition 4 ([4]; Receptor DOR, 10 μM): 6.53%
Mean % ([4]; Receptor DOR, 10 μM, mean of Inhibition 1-4): -4.18%
Inhibition 1 ([4]; Receptor H3, 10 μM): 29.95%
Inhibition 2 ([4]; Receptor H3, 10 μM): 45.1%
Inhibition 3 ([4]; Receptor H3, 10 μM): 59.09%
Inhibition 4 ([4]; Receptor H3, 10 μM): 65.79%
Mean % ([4]; Receptor H3, 10 μM, mean of Inhibition 1-4): 49.98%
Inhibition 1 ([4]; Receptor H4, 10 μM): 11.34%
Inhibition 2 ([4]; Receptor H4, 10 μM): 13.02%
Inhibition 3 ([4]; Receptor H4, 10 μM): 28.62%
Inhibition 4 ([4]; Receptor H4, 10 μM): 77.11%
Mean % ([4]; Receptor H4, 10 μM, mean of Inhibition 1-4): 32.52%
Inhibition 1 ([4]; Receptor Sigma 1, 10 μM): 15.02%
Inhibition 2 ([4]; Receptor Sigma 1, 10 μM): 35.34%
Inhibition 3 ([4]; Receptor Sigma 1, 10 μM): 14.82%
Inhibition 4 ([4]; Receptor Sigma 1, 10 μM): 27.31%
Mean % ([4]; Receptor Sigma 1, 10 μM, mean of Inhibition 1-4): 23.12%
Inhibition 1 ([4]; Receptor Sigma 2, 10 μM): 57.01%
Inhibition 2 ([4]; Receptor Sigma 2, 10 μM): 56.94%
Inhibition 3 ([4]; Receptor Sigma 2, 10 μM): 67.96%
Inhibition 4 ([4]; Receptor Sigma 2, 10 μM): 81.11%
Mean % ([4]; Receptor Sigma 2, 10 μM, mean of Inhibition 1-4): 65.76%
Inhibition 1 ([5]; Receptor 5-HT1D, 10 μM): 74.44%
Inhibition 2 ([5]; Receptor 5-HT1D, 10 μM): 57.78%
Inhibition 3 ([5]; Receptor 5-HT1D, 10 μM): 54.87%
Inhibition 4 ([5]; Receptor 5-HT1D, 10 μM): 71.94%
Mean % ([5]; Receptor 5-HT1D, 10 μM, mean of Inhibition 1-4): 64.76%
Inhibition 1 ([6]; Receptor Alpha1D, 10 μM): 22.56%
Inhibition 2 ([6]; Receptor Alpha1D, 10 μM): 13.18%
Inhibition 3 ([6]; Receptor Alpha1D, 10 μM): 20.43%
Inhibition 4 ([6]; Receptor Alpha1D, 10 μM): 14.74%
Mean % ([6]; Receptor Alpha1D, 10 μM, mean of Inhibition 1-4): 17.73%
Inhibition 2 ([7]; Receptor SERT, 10 μM): 8.4% and 8.39%
Inhibition 3 ([7]; Receptor SERT, 10 μM): 11.88% and 10.26%
Inhibition 4 ([7]; Receptor SERT, 10 μM): 20.53% and 20.37%
Mean % ([7]; Receptor SERT, 10 μM, mean of Inhibition 1-4): 14.96% and 10.68%
Inhibition 1 ([8]; Receptor D2, 10 μM): 17.73%
Inhibition 2 ([8]; Receptor D2, 10 μM): -4.34%
Inhibition 3 ([8]; Receptor D2, 10 μM): 3.54%
Inhibition 4 ([8]; Receptor D2, 10 μM): 5.97%
Mean % ([8]; Receptor D2, 10 μM, mean of Inhibition 1-4): 5.73%

MDL 28170 [UNC10302675A]
Mean % ([1]; H1, mean inhibition): 62.36%
Inhibition 1 ([1]; H1, replicate 1): 85.46%
Inhibition 2 ([1]; H1, replicate 2): 73.14%
Inhibition 3 ([1]; H1, replicate 3): 49.84%
Inhibition 4 ([1]; H1, replicate 4): 41%
Mean % ([2]; NET, mean inhibition): 1.5% and 5.58%
Inhibition 1 ([2]; NET, replicate 1): 1.64% and 23.85%
Inhibition 2 ([2]; NET, replicate 2): -18.73% and 10.38%
Inhibition 3 ([2]; NET, replicate 3): -4.59% and 3.46%
Inhibition 4 ([2]; NET, replicate 4): 27.68% and -15.39%
Mean % ([3]; 5-HT2B, mean inhibition): -23.86%
Inhibition 1 ([3]; 5-HT2B, replicate 1): -2.15%
Inhibition 2 ([3]; 5-HT2B, replicate 2): -34.45%
Inhibition 3 ([3]; 5-HT2B, replicate 3): -28.58%
Inhibition 4 ([3]; 5-HT2B, replicate 4): -30.26%
Mean % ([4]; Alpha1A, mean inhibition): 5.14%
Inhibition 1 ([4]; Alpha1A, replicate 1): 14.68%
Inhibition 2 ([4]; Alpha1A, replicate 2): -1.03%
Inhibition 3 ([4]; Alpha1A, replicate 3): -8.14%
Inhibition 4 ([4]; Alpha1A, replicate 4): 15.06%
Mean % ([4]; Alpha2A, mean inhibition): -0.83%
Inhibition 1 ([4]; Alpha2A, replicate 1): 3.33%
Inhibition 2 ([4]; Alpha2A, replicate 2): -2.81%
Inhibition 3 ([4]; Alpha2A, replicate 3): -6.74%
Inhibition 4 ([4]; Alpha2A, replicate 4): 2.9%
Mean % ([4]; Alpha2C, mean inhibition): -3.61%
Inhibition 1 ([4]; Alpha2C, replicate 1): -3.7%
Inhibition 2 ([4]; Alpha2C, replicate 2): -0.8%
Inhibition 3 ([4]; Alpha2C, replicate 3): -1.62%
Inhibition 4 ([4]; Alpha2C, replicate 4): -8.31%
Mean % ([4]; BZP Rat Brain Site, mean inhibition): 7.23%
Inhibition 1 ([4]; BZP Rat Brain Site, replicate 1): 18.74%
Inhibition 2 ([4]; BZP Rat Brain Site, replicate 2): 4.91%
Inhibition 3 ([4]; BZP Rat Brain Site, replicate 3): -1.16%
Inhibition 4 ([4]; BZP Rat Brain Site, replicate 4): 6.42%
Mean % ([4]; DOR, mean inhibition): -10.37%
Inhibition 1 ([4]; DOR, replicate 1): -5.94%
Inhibition 2 ([4]; DOR, replicate 2): -12.45%
Inhibition 3 ([4]; DOR, replicate 3): -15.16%
Inhibition 4 ([4]; DOR, replicate 4): -7.93%
Inhibition 1 ([4]; GABAA, replicate 1): 16.54% and -28.18%
Inhibition 2 ([4]; GABAA, replicate 2): 2.5% and -11.42%
Inhibition 3 ([4]; GABAA, replicate 3): 1.02% and 0%
Inhibition 4 ([4]; GABAA, replicate 4): 29.11% and -5.47%
Mean % ([4]; H3, mean inhibition): 9.84%
Inhibition 1 ([4]; H3, replicate 1): 9.54%
Inhibition 2 ([4]; H3, replicate 2): 0.8%
Inhibition 3 ([4]; H3, replicate 3): 7.8%
Inhibition 4 ([4]; H3, replicate 4): 21.2%
Mean % ([4]; H4, mean inhibition): -7.26%
Inhibition 1 ([4]; H4, replicate 1): -26.58%
Inhibition 2 ([4]; H4, replicate 2): 0.78%
Inhibition 3 ([4]; H4, replicate 3): -5.94%
Inhibition 4 ([4]; H4, replicate 4): 2.7%
Mean % ([4]; Sigma 1, mean inhibition): 5.78%
Mean % ([4]; Sigma 2, mean inhibition): 26.55%
Mean % ([5]; 5-HT1D, mean inhibition): 5%
Inhibition 1 ([5]; 5-HT1D, replicate 1): 13.22%
Inhibition 2 ([5]; 5-HT1D, replicate 2): 2.39%
Inhibition 3 ([5]; 5-HT1D, replicate 3): 4.89%
Inhibition 4 ([5]; 5-HT1D, replicate 4): -0.52%
Mean % ([6]; Alpha1D, mean inhibition): 0.92%
Inhibition 1 ([6]; Alpha1D, replicate 1): 9.77%
Inhibition 2 ([6]; Alpha1D, replicate 2): 7.35%
Inhibition 3 ([6]; Alpha1D, replicate 3): -4.01%
Inhibition 4 ([6]; Alpha1D, replicate 4): -9.41%
Mean % ([7]; SERT, mean inhibition): -4.02% and -0.38%
Inhibition 1 ([7]; SERT, replicate 1): 19.12% and 14.24%
Inhibition 2 ([7]; SERT, replicate 2): -10.98% and 6.75%
Inhibition 3 ([7]; SERT, replicate 3): -20.47% and -17.68%
Inhibition 4 ([7]; SERT, replicate 4): -3.73% and -4.82%
Mean % ([8]; D2, mean inhibition): -18.47%
Inhibition 1 ([8]; D2, replicate 1): -14.97%
Inhibition 2 ([8]; D2, replicate 2): -19.19%
Inhibition 3 ([8]; D2, replicate 3): -16%
Inhibition 4 ([8]; D2, replicate 4): -23.71%
